Experimental data reported in patent US20200093801A1, “NEW METHODS FOR THE TREATMENT OF MULTIPLE SCLEROSIS” (Novartis AG, priority 2017, published 2020).
Entries after “also recorded” stand apart in the source; their conditions may differ.

Legend:
[1] = system: Cuprizone-Induced Demyelination in Mice; test: Cuprizone-induced demyelination in mice, MRI (169 mg/kg); type: in vivo, Mice (C57BL/6J); conditions: 169 mg/kg p.o. qd, 2-week therapeutic treatment after 5 weeks 0.2% cuprizone
Source text: Studies described below were approved by the Swiss Cantonal Veterinary Authority of Basel City, Switzerland, under the license number 2711. Mice (C57BL/6J) were commercially purchased from Charles River Laboratories, Germany or obtained from Novartis Pharma AG breeding colonies (8-9 weeks old, females). All the animals were allowed to adapt for 7 days prior the start of the experiment and housed in IVC racks (max. 4 mice/XJ Type cage). The animals were given access to food and water ad libitum. Animals were treated with cuprizone for 5 weeks. Cuprizone (Bis(cyclohexanone)oxaldihydrazone, Sigma-Aldrich) was mixed into rodent food pellets (0.2% w/w) by Provimi Kliba AG, Switzerland. Therapeutic treatment of animals after cuprizone was performed for 2 weeks on normal food with 169 mg/kg of BLZ945, qd, p.o. 10 ml/kg. BLZ945 was prepared in vehicle consisting of 0.5% methylcellulose in water and 0.1% Tween-80. Before killing 3 h after last BLZ945 dosing animals were perfused transcardially by phosphate-buffered saline (PBS), brains isolated and fixed in 4% paraformaldehyde (PFA) for 48 h at 4° C.
Measurements were performed with a Biospec 70/30 spectrometer (Bruker Medical Systems, Ettlingen, Germany) operating at 7 T. The operational software of the scanner was Paravision 5.1 (Bruker). Images were acquired from anesthetized, spontaneously breathing animals using a mouse brain circularly polarized coil (Bruker, Model 1P T20063V3; internal diameter 23 mm) for radiofrequency excitation and detection; neither cardiac nor respiratory triggering was applied. Following a short period of introduction in a box, animals were maintained in anesthesia with 1.5% isoflurane (Abbott, Cham, Switzerland) in oxygen, administered via a nose cone. During MRI signal acquisitions, animals were placed in prone position in a cradle made of Plexiglas, the body temperature was kept at 37±1° C. using a heating pad, and the respiration was monitored.
A T2-weighted, two-dimensional multislice RARE (Rapid Acquisition with Relaxation Enhancement) sequence (Hennig et al., 1986) was used for determining the anatomical orientation and for evaluating signal intensities. This was followed by a two-dimensional multislice gradient-recalled FLASH (Fast Low-Angle Shot) acquisition (Haase et al., 1986) for assessment of Magnetization Transfer Ration (MTR). As both sequences had the same anatomical parameters, the choice of the regions-of-interest for evaluations was performed on the RARE images and then transferred to the FLASH images. The parameters of the acquisitions were the following: (a) RARE sequence: effective echo time 80 ms, repetition time 3280 ms, RARE factor 16, 12 averages, field of view 20×18 mm^2, matrix size 213×192, pixel size 0.094×0.094 mm^2, slice thickness 0.5 mm, 15 adjacent slices. […]

[2] = Quantitative determination of BLZ945 in blood and brain (LC-MS-MS); type: in vivo; conditions: mice, p.o., FIG. 11
Protocol: Sample preparation and analysis was based on a modified protein precipitation procedure followed by liquid chromatographic separation coupled with mass spectrometry for detection. Cerebella were homogenized in a gentleMACS™ Dissociator (Milteniy Biotec, #130-093-235) by adding 20% CH3OH to a final concentration of 0.20 g/mL. Blood-EDTA samples were directly used for further preparation. Calibration, quality control, and recovery control samples were prepared by spiking blank blood and blank brain homogenate with known quantities of BLZ945 (between 0.02 and 62.5 μg/mL). For analyte determination, Labetalol hydrochloride (Sigma-Aldrich, # L1011) was used as generic internal standard (IS). […]
LC-MS-MS analysis: For quantitative analysis, a 1.5 μl aliquot of each sample, including calibration, quality control, and recovery control samples were injected with a cooled Waters™ Acquity Urbinary sample manager and HPLC system. […] Quantification was based on the compound/IS ratio of the extracted ion chromatograms of the selected mass transitions 399 m/z→242 m/z for BLZ945 and 329 m/z→162 m/z for Labetalol (IS). The unknown sample concentration was calculated using external calibration curves. The Lower Limit Of Quantification (LLOQ) of the method was set to 20 ng/mL for blood, and 100 ng/mL for brain samples, and the recovery from the matrix was 95±2%. […]

[3] = normalized to vehicle control (normal food)

Q: What does the source list for `CNC(=O)c1cc(Oc2ccc3nc(N[C@@H]4CCCC[C@H]4O)sc3c2)ccn1` [BLZ945, 4-(2-((1R,2R)-2-hydroxycyclohexylamino)benzothiazol-6-yloxy)-N-methylpicolinamide]?
A: Magnetization transfer ratio (MTR) in corpus callosum [1]: No beneficial effect; MRI contrast in corpus callosum [1, 3]: not corpus callosum; also recorded: No beneficial effect; MRI contrast in cortex [1, 3]: reduces MRI contrast; also recorded: significant beneficial effect; also recorded: almost normalized to levels of control mice; MRI contrast in striatum [1, 3]: reduces MRI contrast; also recorded: significant beneficial effect; also recorded: almost normalized to levels of control mice; Kp at 3 h ([2]; C57BL/6J, mouse, brain (cerebellum homogenate) / whole blood (EDTA), po, read-out: brain/blood ratio): 0.3 to 0.6; Blood and brain BLZ945 levels [2]: dose-dependent
